One series addresses T1, human GPR35 (Homo sapiens, UniProt Q9HC97).
T1 construct: expressed in transfected cells; host or cells: CHO-K1
The series is described as follows: PathHunter human GPR35a-β-arrestin-2 interaction assay in CHO-K1 cells. Type of series: cell-based.

A further series has as its system K-ras^G12Dp53^−/− tumors. The series can be described thus: Surgically implanted PDAC tumors in tumor-bearing C57BL/6 mice. Type of series: in vivo. The method, then:
To determine whether targeting mast cell function has a therapeutic effect in PDAC, we injected tumor-bearing C57BL/6 mice Nedocromil sodium, a mast cell stabilizer. […] Tumor measurement was performed at the end time point (day 50) after treatment. […] Similarly, mast cell degranulation in the tumor microenvironment was inhibited in the nedocromil sodium-treated group compared with in the saline-treated control group.

The test system of series [1] is ion channels present in the intestinal cell line HT29. The series is described as follows: Whole-cell patch-clamp recordings of ion channels. Type of series: cell-based. As to conditions: HT29 cells. From the text: Summary—Whole-cell patch-clamp recordings were used to test the effects of The Compound on ion channels.
For the next series, the system named is Panc-02 tumor cells. The series is described as follows: Panc-02 tumor growth in mice. Type of series: in vivo. As to conditions: treated mice vs. saline control at day 21 after treatment, P<0.001. An excerpt: To determine whether targeting mast cell function has a therapeutic effect in PDAC, we injected tumor-bearing C57BL/6 mice Nedocromil sodium, a mast cell stabilizer. […] […] […] Similarly, mast cell degranulation in the tumor microenvironment was inhibited in the nedocromil sodium-treated group compared with in the saline-treated control group.

Series [2] relates to stage 4 transit metastatic melanoma. The series is described as follows: Transit metastasis melanoma case study, topical application. As for the experimental part:
Person with stage 4 transit metastatic melanoma with 30 melanomas on the body. Using chemotherapy infusions every 3 weeks since 2019. For 2 weeks used topical Nedocromil sodium with one dose per tumor (30) per week. […] In modern medicine the goal is to shrink a tumor, but the tumor never resolves. […] The patient was treated with Nedocromil Sodium on all 30 tumors in one sitting.

The next series deals with cancerous tumor. The series is described as follows: Dog tumor case, topical application. Format: in vivo. The method, then:
Summary—A female dog was given the diagnosis of a cancerous tumor (without confirmatory histology due to lack of ability to aspirate the tumor due to the hardness of the mass) in June of 2020. At the time of diagnosis the tumor located on […] right shoulder was measured at 2 inches by 2 inches with a depth of 0.5 inches. Other than supportive care (ketogenic diet to delay tumor progression, and gabapentin for neuropathic pain) no treatment was provided by the owners, as the cost and lack of clear benefit to conventional therapy (biopsy, chemotherapy, and eventual resection) was not deemed to be appropriate for this dog. […] On December 23rd, 2020 the first application of Nedocromil sodium compound was administered to the dog via the topical route. The dog's tumor area was shaved to improve the absorption of the compound into the skin. On Jul. 16, 2021 (tumor size of 1.5×1×0.5 inches), a second application of Nedocromil Sodium was applied using the same dosing strategy in attempt to eradicate the tumor entirely.

Results on one molecule are retold here after US20220152015A1, “NEDOCROMIL SODIUM TO PREVENT, LIMIT ONSET, AND /OR TREAT PANCREATIC CANCER” (priority 2020, published 2022).

Structures are written as SMILES.

T1 sequence (Q9HC97 whole entry): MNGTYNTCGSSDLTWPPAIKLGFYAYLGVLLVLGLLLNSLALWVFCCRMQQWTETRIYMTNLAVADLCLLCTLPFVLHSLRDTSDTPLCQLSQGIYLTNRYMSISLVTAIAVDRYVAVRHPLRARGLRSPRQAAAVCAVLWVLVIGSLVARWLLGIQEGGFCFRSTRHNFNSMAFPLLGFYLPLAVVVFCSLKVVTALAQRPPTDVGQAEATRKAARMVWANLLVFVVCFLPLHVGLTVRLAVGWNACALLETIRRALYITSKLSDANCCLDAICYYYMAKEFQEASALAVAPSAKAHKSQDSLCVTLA

As usually defined, the EC50 is the concentration giving half of the maximal effect. For `CCCc1c2oc(C(=O)[O-])cc(=O)c2cc2c(=O)cc(C(=O)[O-])n(CC)c12.[Na+].[Na+]` [Nedocromil Sodium, 4H-Pyrano[3,2-g]quinoline-2,8-dicarboxylic acid, 9-ethyl-6,9-dihydro-4,6-dioxo-10-propyl-, disodium salt], a half-maximal response at human GPR35 (CHO-K1 cell line stably expressing human GPR35 and β-arrestin) (EC50) required 2980 ± 1270 nM. Further, the “agonism of GPR 35” value on human GPR35 (PathHunter β-arrestin-2 interaction assay) is recorded as “potent full agonist”. Also, the “mast cell degranulation in the tumor microenvironment” value in the series on K-ras^G12Dp53^−/− tumors (compared with saline-treated control group) was “inhibited”. Moreover, the mean tumor size in the series on K-ras^G12Dp53^−/− tumors (end time point (day 50) after treatment, saline group 31.3) came to 5.2 mm^3. For the same molecule, the tumor growth entry in the series on K-ras^G12Dp53^−/− tumors (treated mice vs. saline control at day 42 after treatment, P<0.001) is on record as “significantly suppressed”; with Panc-02 tumor cells, “significantly suppressed”. Moreover, the “dose dependence of ion channel block” value in series [1] is “dose-dependent manner”. Also, the “number of tumors dissolved” value in series [2] (after 2nd topical treatment) is recorded as 17 OF THE 30 TUMORS. For the same molecule, the tumor change result was “the tumors have flattened” in series [2] (after one topical treatment, 30 tumors); “no tumor was able to be felt” in the series with cancerous tumor (8 week mark after second topical application); “noticeably smaller” in the series with cancerous tumor (roughly 6 weeks after second topical application). Moreover, the side effects result in series [2] (all 30 tumors treated in one sitting) is reported as “no side effects”.
